The source of these data is a melting point compilation (Tetko et al.; mined from patent text by program, amines drawn as free bases though some values may be those of a salt).

The melting point is the temperature of the solid-liquid transition. In the case of `Cc1cc(Cn2nnn(-c3ccc(C(F)(F)F)cc3)c2=O)ccc1NC(=O)c1cccc(I)c1C(=O)NC(C)(C)CS(C)(=O)=O`, the melting point lay in the range of 108 to 112 °C. To `Clc1ccc2c(c1)C(Cl)c1ccccc1CO2` (stereo not given) belongs 125 to 127 °C. For `CC(C)c1ccccc1Sc1c(O)cc(-c2ccc(OCCCc3ccccc3)cc2)oc1=O` the value was 132 to 133 °C. For `O=[N+]([O-])c1ccc(-c2nc(-c3cccs3)no2)cc1` the value was 169 to 171 °C; for `CCN(CC)CCOc1ccc(CCNC(=O)c2ccc(-c3ccc(Cl)cc3)cc2)cc1`, 178 to 179 °C; for `O=C(ON1C(=O)CCC1=O)c1ccccn1`, 174 to 175 °C. As to `Cc1cc(Nc2ccc(C(C)(C)C)cc2)c2[nH]ncc2n1`, the melting point lay within 258 to 262 °C.

Compound `C=CCNc1ccc(N(CC(O)CO)CC(O)CO)cc1[N+](=O)[O-]` (stereo not given) returned a melting point of 154 to 158 °C. For `OCc1c(Cl)nc2ccccc2c1-c1ccc(F)cc1`, the melting point was in the range of 159 to 160 °C.

The compound `CCCCc1ncc(CCNC(CCc2ccccc2)C(=O)O)n1Cc1ccccc1Cl` (stereo not given) yielded a melting point of 123 °C. For `COc1cc(Nc2c(C#N)cnc3cc(OCCOCCN4CCNCC4)c(OC)cc23)c(Cl)cc1Cl` the value was 88 to 90 °C; for `CCOCc1nc2c(N)nc3ccccc3c2n1CC1(OCCS(C)(=O)=O)CCN(C(C)=O)CC1`, 208 to 210 °C.

`COc1ccccc1N1CCN(Cc2ccccc2CCC(=O)O)CC1` registered a melting point of 155 to 158 °C.

Consider `CCC(=O)N1CC(=O)C2=C(C1)CN1NC(N3CCOCC3)=NC1=N2`, for which the melting point lay within 278 to 280 °C. For `O=C(O)c1cc2cc(OCCNC[C@H](O)COc3ccccc3)ccc2s1`, the melting point fell in the range of 261 to 262 °C.

As to `CC(C)(Cc1ccccc1)C(NC(=O)c1ccc(Cl)cc1)Nc1c(Nc2cccnc2Cl)c(=O)c1=O` (stereo not given), the melting point was in the range of 236 to 237 °C. To `N#CC1CCCc2cc3c(nc21)CCCC3` (stereo not given) belongs 88 to 90 °C; to `CN1CCN(CCOc2ccc(Nc3ncc4ccc(-c5cccnc5)n4n3)cc2)CC1`, 107 to 110 °C; to `COc1cc(CCNc2ncnc3scnc23)ccc1O`, 151 to 154 °C. To `Nc1ccc(S(=O)(=O)Nc2ccc(Cl)cc2Cl)cc1C(=O)O` belongs 224 °C. To `CCOc1cc(N)c(Cl)cc1C(=O)NC[C@H]1CN(CC2CCN(C(=O)N3CCC3)CC2)CCO1` belongs 166 to 168 °C. For the compound `COc1cc(OC)cc(-c2ncoc2-c2cc(N)c(OC)cc2O)c1`, the melting point is 122 to 123 °C.

Turning to `Cc1ccc(C(=O)NCCNC(=O)OC(C)(C)C)s1`, the melting point lay within 109 to 110 °C.

`Cc1nc2cc(C(C)(C)C)c(O)cc2o1` had a melting point of 264 to 266 °C. In turn, `COC(=O)c1nc(Cl)c(F)c(NC(C)=O)c1Cl` registered a melting point of 183 to 186 °C. To `CC1(C)CC(=O)C(S(=O)(=O)Cc2ccc(Cl)cc2)=C(O)C1` belongs 111 to 113 °C; to `COC(=O)c1cc(-c2ccc(C)c(F)c2)n[nH]c1=O`, 206 to 207 °C.

For the compound `Cc1ccc(-c2ccc3c(c2)C=C(C=O)CCO3)cc1`, the melting point lay within 132 to 133 °C. To `C=CCn1c(-c2cccnc2)nn(CN2CCN(c3cccc4c3OCCO4)CC2)c1=S` belongs 122 to 127 °C; to `O=C(CC(=O)C1CC1)c1cccnn1`, 85 to 87 °C. For `COc1ccc2c(C(=O)N(C=O)CC(=O)O)cccc2c1C(F)(F)F` the value was 142 to 144 °C. For `C#Cc1cccc(NC(C)=O)c1` the value was 94 to 96 °C; for `COc1ccccc1-c1ccc2c(c1)CC[C@H]1N(C)C(=O)CC[C@]21C`, 152 to 156 °C. In turn, `CS(=O)(=O)c1cc(C(=O)O)cc(N=Cc2ccco2)c1Cl` showed a melting point of 221 °C. In the case of `N#Cc1cc(NC(=O)c2cc3ccccc3o2)ccc1N1CCC(CCO)CC1`, the melting point was determined as 214 °C. To `CCn1cc(C(=O)O)c(=O)c2cc(F)c(N3CCC(NCC(C)=O)C3)nc21` (stereo not given) belongs 287 to 289 °C.

`O=C(O)c1cc2sc3sccc3c2s1` yielded a melting point of 276 °C. On to `Cc1ccc(S(N)(=O)=O)cc1NC(=O)c1cnn2c(C(F)F)cc(-c3ccc(C(F)(F)F)cc3)nc12`, for which the melting point amounted to 293 °C. To `Cc1cc(=O)n2c3c(cc(C(O)(C(F)(F)F)C(F)(F)F)cc13)OC2` belongs 262 to 264 °C. In turn, `O=C(O)C(Cc1ccc(OCc2ccccc2)cc1)c1ccccc1` (stereo not given) came in with a melting point of 133 to 137 °C.

`COc1cccc(Oc2ncccc2C=O)c1`: the melting point was in the range of 76 to 78 °C.

`CC(=O)C1=C(C)CC2C3CCC4CC5OC5CC4(C)C3C(=O)CC12C` (stereo not given) displayed a melting point of 155 to 157 °C. To `CCCN(Cc1cccc(C(=N)N)c1)C(=O)Nc1ccc(-c2ccccc2S(=O)(=O)NC(C)(C)C)cc1` belongs 201 to 202 °C; to `COc1ccc(CN(Cc2ccc(OC)cc2)S(=O)(=O)c2ccc(N(CCS(C)(=O)=O)Cc3ccc(C)cc3)cc2)cc1`, 85.7 to 86.6 °C. To `NC(=CC(=O)N1CCn2c(nnc2C(F)(F)F)C1)Cc1cc(F)c(F)cc1F` belongs 271 °C; to `CC(C)(C)C(O)(C=Cc1ccc(Cl)cc1)n1cncn1` (stereo not given), 139 to 141 °C. The compound `Clc1conc1OC1CN2CCC1CC2` (stereo not given) had a melting point of 68 to 69 °C. For `Oc1ccc(OCCOc2ccccc2)cc1` the value was 156 °C; for `Cc1nc[nH]c1CSCCNC(=N)NC#N`, 125 to 127 °C; for `OCCCON=Cc1cn(Cc2ccccc2)c2ccccc12`, 76.4 to 77.7 °C.

In turn, `COc1ccc(C(=O)Nc2ccc3ccc(-c4ccccc4)nc3n2)cc1` yielded a melting point of 187 °C. For `COc1ccc(COC2CC(n3cc(C(F)(F)F)c(=O)n(C(=O)c4ccccc4)c3=O)OC2CO)cc1` (stereo not given) the value was 152 to 153 °C; for `COC1=NS(=O)N=C1NCCCCC#CCN(C)C` (stereo not given), 154 to 155 °C; for `COC(=O)c1nc(-c2ccc(Cl)c(OC)c2F)nc(N)c1/C=C/Br`, 171 to 173 °C. To `O=C(NCCCCN1C2CCC1CN(c1ccc(Cl)cc1)C2)C(F)(F)F` belongs 83 to 85 °C. For `COc1ccc(SC2CC(=O)N2CC(=O)O)cc1` (stereo not given) the value was 78 to 79 °C; for `NNc1nc(F)c(CC(F)(F)F)cc1Cl`, 104 to 106 °C; for `Cc1cccc2[nH]cnc12`, 141 to 145 °C. `CCn1cccc1C(=O)C(C#N)C(=O)Nc1ccccc1` (stereo not given) came in with a melting point of 77 to 79 °C. For `COc1ccc(CN(C)CCCCCc2ccc(NC(=O)c3cccc4c(=O)c5cccc(F)c5[nH]c34)cc2)cc1OC` the value was 130 °C; for `Fc1c(F)c(F)c(CSc2nc3ccccc3s2)c(F)c1F`, 51 to 53 °C; for `Cc1ccc(-c2nn(-c3ccccc3)c(N)c2C(N)=O)cc1`, 186 to 187 °C. For `COCc1cccc(C=O)c1NC(=O)CC1c2ccccc2Oc2ccccc21` the value was 202 to 203 °C. For `Nc1nc(N2CCCC2)c2nc[nH]c2n1` the value was 265 °C.

`CCN(CC)CCCNC(=O)Cn1ncc(-c2ccc([N+](=O)[O-])cc2)c1-c1ccccc1` gave a melting point of 100 to 101 °C.
